The results in this text go back to patent US20240368135A1 (VERTEX PHARMACEUTICALS INCORPORATED, priority 2021, published 2024).

A value given as a limit tells only on which side of the number the result lay.

Chain of human NaV 1.8 (Q9Y5Y9 126-399 limits assumed): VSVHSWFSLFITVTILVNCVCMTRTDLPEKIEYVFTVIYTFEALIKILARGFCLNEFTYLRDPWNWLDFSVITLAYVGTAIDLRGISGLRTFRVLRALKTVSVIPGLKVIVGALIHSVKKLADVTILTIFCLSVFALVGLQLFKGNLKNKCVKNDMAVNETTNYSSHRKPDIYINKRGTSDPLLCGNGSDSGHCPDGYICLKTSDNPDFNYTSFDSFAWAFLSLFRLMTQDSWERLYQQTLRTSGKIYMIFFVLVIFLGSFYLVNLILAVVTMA
Chain of human NaV 1.8 (Q9Y5Y9 660-890 limits assumed): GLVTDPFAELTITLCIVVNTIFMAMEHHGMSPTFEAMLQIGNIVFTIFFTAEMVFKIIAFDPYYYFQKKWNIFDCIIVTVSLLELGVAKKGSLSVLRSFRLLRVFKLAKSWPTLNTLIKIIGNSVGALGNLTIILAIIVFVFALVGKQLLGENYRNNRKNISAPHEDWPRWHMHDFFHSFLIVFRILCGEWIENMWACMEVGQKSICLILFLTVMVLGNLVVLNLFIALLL
Chain of human NaV 1.8 (Q9Y5Y9 1148-1722 limits assumed): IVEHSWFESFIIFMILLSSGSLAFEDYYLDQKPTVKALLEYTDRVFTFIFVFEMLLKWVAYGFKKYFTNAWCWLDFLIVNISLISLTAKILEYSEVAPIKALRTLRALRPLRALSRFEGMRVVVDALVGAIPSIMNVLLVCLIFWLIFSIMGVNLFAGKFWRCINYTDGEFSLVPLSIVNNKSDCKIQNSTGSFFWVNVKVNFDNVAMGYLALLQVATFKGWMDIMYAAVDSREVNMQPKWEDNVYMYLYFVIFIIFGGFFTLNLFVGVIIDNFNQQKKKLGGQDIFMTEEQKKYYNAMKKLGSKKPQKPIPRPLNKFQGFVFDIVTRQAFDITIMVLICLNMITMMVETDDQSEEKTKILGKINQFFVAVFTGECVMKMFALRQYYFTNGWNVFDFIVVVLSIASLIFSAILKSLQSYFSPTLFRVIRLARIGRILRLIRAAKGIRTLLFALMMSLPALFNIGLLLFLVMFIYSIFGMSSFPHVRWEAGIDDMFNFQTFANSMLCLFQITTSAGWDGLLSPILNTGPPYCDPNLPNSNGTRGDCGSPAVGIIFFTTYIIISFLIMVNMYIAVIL

The first test concerns the target human NaV 1.8 (Homo sapiens, UniProt Q9Y5Y9). Nature of the test: E-VIPR assay detecting and measuring NaV inhibition properties. In kind it is cell-based. The conditions noted are these: HEK cells expressing truncated human NaV 1.8; in the presence of human serum (compound numbers followed by *); read-out: IC50 in the E-VIPR Assay, performed in the presence of human serum. The method in brief:
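Membrane potential was followed by coumarin/oxonol FRET during electrical field stimulation of matrigel-seeded HEK cells carrying truncated human NaV1.8 plus KIR2.1. Dosing used 11 points, 3-fold steps, top 300 nM final, 0.625% DMSO, with or without 25% human serum.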
As to `COc1c([C@H]2C[C@@](C)(C(F)(F)F)O[C@@H]2C(=O)Nc2ccnc(C(O)CO)c2)ccc(F)c1C` (single isomer, unassigned) [Compound 705], the IC50 was at least 1000 nM.

For the compound `COc1c(C2CC(C)(C(F)(F)F)OC2C(=O)Nc2ccnc(C(O)C(C)O)c2)ccc(F)c1F` (single isomer, unassigned) [Compound 693], the IC50 is at least 1000 nM.

As to `COc1c(C2CC(C)(C(F)(F)F)OC2C(=O)Nc2ccnc(C(O)C(C)O)c2)ccc(F)c1F` (single isomer, unassigned) [Compound 695], the IC50 is at least 1000 nM.

For `COc1c([C@H]2[C@@H](C)[C@@H](C)O[C@@H]2C(=O)Nc2ccnc(C(O)CO)c2)ccc(F)c1F` (relative stereo) [Compound 719, rel-(2S,3R,4R,5R)-3-(3,4-difluoro-2-methoxyphenyl)-N-(2-(1,2-dihydroxyethyl)pyridin-4-yl)-4,5-dimethyltetrahydrofuran-2-carboxamide], the IC50 was at least 1000 nM.

The test is the same for the next values; noted with them: HEK cells expressing truncated human NaV 1.8; no human serum; read-out: IC50 in the E-VIPR Assay.
For the compound `COc1c([C@H]2[C@H](C(=O)Nc3cnc(CCO)nc3)O[C@@](C)(C(F)(F)F)[C@H]2C)ccc(F)c1F` [Compound 237, (2R,3S,4S,5R)-3-(3,4-difluoro-2-methoxyphenyl)-N-(2-(2-hydroxyethyl)pyrimidin-5-yl)-4,5-dimethyl-5-(trifluoromethyl)tetrahydrofuran-2-carboxamide], the IC50 was 10 to 100 nM.

Consider `Cc1nn(S(C)(=O)=O)cc1NC(=O)[C@@H]1O[C@@](C)(C(F)(F)F)[C@@H](C)[C@H]1c1ccc(F)c(F)c1OCCO` [Compound 538, (2R,3S,4S,5R)-3-(3,4-difluoro-2-(2-hydroxyethoxy)phenyl)-4,5-dimethyl-N-(3-methyl-1-(methylsulfonyl)-1H-pyrazol-4-yl)-5-(trifluoromethyl)tetrahydrofuran-2-carboxamide], for which the IC50 was below 10 nM.

As to `COc1c([C@H]2[C@H](C(=O)NCCc3cnn(C)c3)O[C@@](C)(C(F)(F)F)[C@H]2C)ccc(F)c1F` [Compound 283, (2R,3S,4S,5R)-3-(3,4-difluoro-2-methoxyphenyl)-4,5-dimethyl-N-(2-(1-methyl-1H-pyrazol-4-yl)ethyl)-5-(trifluoromethyl)tetrahydrofuran-2-carboxamide], the IC50 was at least 1000 nM.

Regarding `CCOc1c([C@@H]2[C@@H](C(=O)Nc3ccnc(S(C)(=N)=O)c3)O[C@](C)(C(F)(F)F)[C@@H]2C)ccc(F)c1F` (single isomer, unassigned) [Compound 10], the IC50 is 100 to 1000 nM.

Consider `COc1c([C@H]2[C@H](C(=O)Nc3ccnc(C(CO)OC)c3)O[C@@](C)(C(F)(F)F)[C@H]2C)ccc(F)c1F` (single isomer, unassigned) [Compound 248, rel-(2R*,3S*,4S*,5R*)-3-(3,4-difluoro-2-methoxyphenyl)-N-(2-(2-hydroxy-1-methoxyethyl)pyridin-4-yl)-4,5-dimethyl-5-(trifluoromethyl)tetrahydrofuran-2-carboxamide], for which the IC50 is below 10 nM.

On to `COc1c([C@H]2[C@H](C(=O)Nc3ccc(C(=O)NC#N)nc3)O[C@@](C)(C(F)(F)F)[C@H]2C)ccc(F)c1F` [Compound 373, N-cyano-5-[[(2R,3S,4S,5R)-3-(3,4-difluoro-2-methoxy-phenyl)-4,5-dimethyl-5-(trifluoromethyl)tetrahydrofuran-2-carbonyl]amino]pyridine-2-carboxamide], for which the IC50 lay within 100 to 1000 nM.

Consider `COc1c([C@H]2[C@H](C(=O)NC3CN(S(C)(=O)=O)C3)O[C@@](C)(C(F)(F)F)[C@H]2C)ccc(F)c1F` [Compound 307, (2R,3S,4S,5R)-3-(3,4-difluoro-2-methoxyphenyl)-4,5-dimethyl-N-(1-(methylsulfonyl)azetidin-3-yl)-5-(trifluoromethyl)tetrahydrofuran-2-carboxamide], for which the IC50 is at least 1000 nM.

`CCOc1c([C@H]2[C@H](C(=O)Nc3ccn(C)c(=O)c3)O[C@@](C)(C(F)(F)F)[C@H]2C)ccc(F)c1F` (stereo in doubt) [Compound 101, rac-(2R,3S,4S,5R)-3-(2-ethoxy-3,4-difluorophenyl)-4,5-dimethyl-N-(1-methyl-2-oxo-1,2-dihydropyridin-4-yl)-5-(trifluoromethyl)tetrahydrofuran-2-carboxamide]: the IC50 is below 10 nM.

As for `CCOc1c([C@@H]2[C@@H](C(=O)Nc3ccnc(S(C)(=N)=O)c3)O[C@](C)(C(F)(F)F)[C@@H]2C)ccc(F)c1C` (single isomer, unassigned) [Compound 126], the IC50 fell in the range of 100 to 1000 nM.

Consider `COc1c(C2C(C(=O)Nc3ccn4nnnc4c3)OC(C)(C(F)(F)F)C2C)ccc(F)c1C` (racemic) [Compound 132, 3-(4-fluoro-2-methoxy-3-methyl-phenyl)-4,5-dimethyl-N-(tetrazolo[1,5-a]pyridin-7-yl)-5-(trifluoromethyl)tetrahydrofuran-2-carboxamide], for which the IC50 is below 10 nM.

Turning to `COc1cc(NC(=O)[C@@H]2O[C@@](C)(C(F)(F)F)[C@@H](C)[C@H]2c2ccc(F)c(F)c2OCCO)c(F)cn1` [Compound 570, (2R,3S,4S,5R)-3-(3,4-difluoro-2-(2-hydroxyethoxy)phenyl)-N-(5-fluoro-2-methoxypyridin-4-yl)-4,5-dimethyl-5-(trifluoromethyl)tetrahydrofuran-2-carboxamide], the IC50 lay within 10 to 100 nM.

Take `COc1c([C@H]2[C@H](C(=O)NC3CC(F)(F)C3)O[C@@](C)(C(F)(F)F)[C@H]2C)ccc(F)c1F` [Compound 280, (2R,3S,4S,5R)-3-(3,4-difluoro-2-methoxyphenyl)-N-(3,3-difluorocyclobutyl)-4,5-dimethyl-5-(trifluoromethyl)tetrahydrofuran-2-carboxamide]: the IC50 fell in the range of 100 to 1000 nM.

On to `COc1c([C@H]2[C@H](C(=O)Nc3ccc(-c4ccn(C)n4)nc3)O[C@@](C)(C(F)(F)F)[C@H]2C)ccc(F)c1F` [Compound 400, (2R,3S,4S,5R)-3-(3,4-difluoro-2-methoxyphenyl)-4,5-dimethyl-N-(6-(1-methyl-1H-pyrazol-3-yl)pyridin-3-yl)-5-(trifluoromethyl)-tetrahydrofuran-2-carboxamide], for which the IC50 fell in the range of 100 to 1000 nM.

Consider `COc1c([C@H]2[C@H](C(=O)Nc3ccc(C#N)cn3)O[C@@](C)(C(F)(F)F)[C@H]2C)ccc(F)c1F` [Compound 187, (2R,2S,4S,5R)-N-(5-cyanopyridin-2-yl)-3-(3,4-difluoro-2-methoxyphenyl)-4,5-dimethyl-5-(trifluoromethyl)tetrahydrofuran-2-carboxamide], for which the IC50 is 10 to 100 nM.

For `CCOc1c(C2C(C(=O)Nc3ccnc(S(C)(=N)=O)c3)OC(C)(C(F)(F)F)C2C)ccc(F)c1F` (single isomer, unassigned) [Compound 110, 3-(2-ethoxy-3,4-difluoro-phenyl)-4,5-dimethyl-N-[2-(methylsulfonimidoyl)-4-pyridyl]-5-(trifluoromethyl)tetrahydrofuran-2-carboxamide], the IC50 was below 10 nM.

Regarding `COc1c([C@H]2[C@H](C(=O)NCC(O)c3cnn(C)c3)O[C@@](C)(C(F)(F)F)[C@H]2C)ccc(F)c1F` (stereo partly drawn) [Compound 301, (2R,3S,4S,5R)-3-(3,4-difluoro-2-methoxyphenyl)-N-(2-hydroxy-2-(1-methyl-1H-pyrazol-4-yl)ethyl)-4,5-dimethyl-5-(trifluoromethyl)tetrahydrofuran-2-carboxamide], the IC50 is at least 1000 nM.

For the compound `CNC1(c2cc(NC(=O)[C@@H]3O[C@@](C)(C(F)(F)F)[C@@H](C)[C@H]3c3ccc(F)c(F)c3OC)ccn2)COC1` [Compound 361, (2R,3S,4S,5R)-3-(3,4-difluoro-2-methoxyphenyl)-4,5-dimethyl-N-(2-(3-(methylamino)oxetan-3-yl)pyridin-4-yl)-5-(trifluoromethyl)tetrahydrofuran-2-carboxamide], the IC50 was below 10 nM.

On to `COc1c([C@H]2[C@H](C(=O)Nc3ccn4c(C)ncc4c3)O[C@@](C)(C(F)(F)F)[C@H]2C)ccc(F)c1F` [Compound 315, (2R,3S,4S,5R)-3-(3,4-difluoro-2-methoxyphenyl)-4,5-dimethyl-N-(3-methylimidazo[1,5-a]pyridin-7-yl)-5-(trifluoromethyl)-tetrahydrofuran-2-carboxamide], for which the half-maximal inhibitory concentration (IC50) was below 10 nM.

Consider `COc1c([C@H]2[C@H](C(=O)Nc3cnc(C)n3C)O[C@@](C)(C(F)(F)F)[C@H]2C)ccc(F)c1F` [Compound 447, (2R,3S,4S,5R)-3-(3,4-difluoro-2-methoxy-phenyl)-N-(2,3-dimethylimidazol-4-yl)-4,5-dimethyl-5-(trifluoromethyl)tetrahydrofuran-2-carboxamide], for which the IC50 fell in the range of 10 to 100 nM.

In the case of `COc1c([C@H]2[C@H](C(=O)Nc3cc(C(C)(C)O)ncn3)O[C@@](C)(C(F)(F)F)[C@H]2C)ccc(F)c1F` [Compound 389, (2R,3S,4S,5R)-3-(3,4-difluoro-2-methoxy-phenyl)-N-[6-(1-hydroxy-1-methyl-ethyl)pyrimidin-4-yl]-4,5-dimethyl-5-(trifluoromethyl)tetrahydrofuran-2-carboxamide], the IC50 was 10 to 100 nM.

With `C[C@H]1[C@@H](c2ccc(F)c(F)c2OCCO)[C@H](C(=O)Nc2cccnc2)O[C@@]1(C)C(F)(F)F` [Compound 575, (2R,3S,4S,5R)-3-[3,4-difluoro-2-(2-hydroxyethoxy)phenyl]-4,5-dimethyl-N-(3-pyridyl)-5-(trifluoromethyl)tetrahydrofuran-2-carboxamide], the IC50 was below 10 nM.

Regarding `COCCOc1c([C@H]2[C@H](C(=O)Nc3ccnc(N4CCN(C)CC4=O)c3)O[C@@](C)(C(F)(F)F)[C@H]2C)ccc(F)c1F` [Compound 585, (2R,3S,4S,5R)-3-(3,4-difluoro-2-(2-methoxyethoxy)phenyl)-4,5-dimethyl-N-(2-(4-methyl-2-oxopiperazin-1-yl)pyridin-4-yl)-5-(trifluoromethyl)tetrahydrofuran-2-carboxamide], the IC50 lay in the range of 10 to 100 nM.
